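96-well plates; 48 h exposure; 5 concentrations. Endpoints by linear interpolation between flanking doses. Not reached: highest tested concentration assigned. GI50 marks 50% less growth.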 Activity calls are given as the source filed them. No stated cut-off is given here; in the data, active = GI50 up to about 1.1 µM and inactive = higher.
What was measured:
Test in all cases: DTP human tumour cell line panel, 48 h
NCI-H522 = system: NCI-H522
M14 = system: M14
LOX IMVI = system: LOX IMVI
SNB-75 = system: SNB-75
OVCAR-8 = system: OVCAR-8
UACC-257 = system: UACC-257
NCI-H226 = system: NCI-H226
A498 = system: A498
Malme-3M = system: Malme-3M
K562 = system: K562
U-251 = system: U-251
IGROV-1 = system: IGROV-1
A549 = system: A549
HOP-92 = system: HOP-92
OVCAR-3 = system: OVCAR-3
786-0 = system: 786-0
CCRF-CEM = system: CCRF-CEM
UO-31 = system: UO-31
MDA-MB-435 = system: MDA-MB-435

Measured: GI50

Nc1nc2c(c(=O)[n-]1)[n+](CCO)cn2C1OC(CO)C(O)C1O (stereo unspecified)
inactive: NCI-H522 > 100 µM | M14 > 100 µM | LOX IMVI > 100 µM | SNB-75 > 100 µM | OVCAR-8 > 100 µM | UACC-257 > 100 µM | NCI-H226 > 100 µM | A498 > 100 µM | Malme-3M > 100 µM | K562 > 100 µM | U-251 > 100 µM | IGROV-1 > 100 µM | A549 > 100 µM | HOP-92 > 100 µM | OVCAR-3 > 100 µM | 786-0 > 100 µM | CCRF-CEM > 100 µM | UO-31 > 100 µM

O=[N+]([O-])c1cccc(/C=N/C23CC4CC(CC(C4)C2)C3)c1
inactive: NCI-H522 > 100 µM | M14 > 100 µM | LOX IMVI 63.7 µM | SNB-75 > 100 µM | OVCAR-8 > 100 µM | UACC-257 > 100 µM | NCI-H226 > 100 µM | A498 > 100 µM | Malme-3M > 100 µM | K562 29.7 µM | U-251 > 100 µM | IGROV-1 > 100 µM | A549 > 100 µM | HOP-92 > 100 µM | OVCAR-3 > 100 µM | 786-0 > 100 µM | CCRF-CEM 25.1 µM | UO-31 > 100 µM

CCCNCCCCC(NC(C)=O)C(=O)NCc1ccccc1 (stereo unspecified)
inactive: NCI-H522 > 100 µM | M14 > 100 µM | LOX IMVI > 100 µM | SNB-75 25.2 µM | OVCAR-8 > 100 µM | UACC-257 > 100 µM | NCI-H226 > 100 µM | A498 > 100 µM | Malme-3M > 100 µM | K562 > 100 µM | U-251 > 100 µM | IGROV-1 > 100 µM | A549 > 100 µM | HOP-92 > 100 µM | OVCAR-3 > 100 µM | 786-0 > 100 µM | CCRF-CEM > 100 µM | UO-31 > 100 µM

CSC(C1c2ccccc2N(c2ccc(C)cc2)C2=NC(=O)N(C)C(=O)C21Cl)S(=O)(=O)c1ccc(C)cc1 (stereo unspecified)
inactive: NCI-H522 13.4 µM | M14 26.9 µM | LOX IMVI 20.5 µM | SNB-75 23 µM | OVCAR-8 27.8 µM | UACC-257 23.7 µM | NCI-H226 22.2 µM | A498 33 µM | Malme-3M 17.2 µM | K562 19.1 µM | U-251 19.3 µM | IGROV-1 33.3 µM | A549 34 µM | HOP-92 11 µM | OVCAR-3 13.2 µM | 786-0 18.5 µM | CCRF-CEM 10.8 µM | UO-31 22.4 µM

COc1ccc(/C(Cl)=C(\C#N)c2ccc(OC)c(OC)c2)cc1OC
inactive: NCI-H522 59.8 µM | M14 > 100 µM | LOX IMVI > 100 µM | MDA-MB-435 87.7 µM | UACC-257 > 100 µM | NCI-H226 77.4 µM | A498 > 100 µM | K562 48.9 µM | U-251 40.1 µM | IGROV-1 > 100 µM | A549 > 100 µM | HOP-92 17.8 µM | OVCAR-3 63.1 µM | 786-0 > 100 µM | CCRF-CEM > 10 µM | UO-31 59 µM

COc1cc(CCc2ccncc2)cc(OC)c1OC
inactive: NCI-H522 > 100 µM | M14 > 100 µM | LOX IMVI > 100 µM | SNB-75 > 100 µM | OVCAR-8 > 100 µM | UACC-257 > 100 µM | NCI-H226 > 100 µM | A498 > 100 µM | Malme-3M > 100 µM | K562 > 100 µM | U-251 > 100 µM | IGROV-1 > 100 µM | A549 > 100 µM | HOP-92 > 100 µM | OVCAR-3 > 100 µM | 786-0 > 100 µM | CCRF-CEM > 100 µM | UO-31 > 100 µM
